Results as given in patent US20240376097A1, “BCL-2 Inhibitor” (BeiGene Ltd., priority 2020, published 2024).
Where two headings read alike, the source gives them in different places.

Assays:
[1] = Metabolic Stability Study, liver microsome incubation (human); format: in vitro ADME; conditions: human liver microsomes 0.5 mg/mL, 1 μM compound, NADPH; for half-life at 1 μM: NA^# = very stable, beyond the detection limits, read-out: T1/2 (min) Human; for microsomal CLint at 1 μM: read-out: CLint (μL × min^−1 × mg^−1) Human
Method: Biological Example: Metabolic Stability Study
The metabolic stability of some compounds was evaluated by using the liver microsome incubation system in vitro. Briefly, the test compounds at 1 μM, were incubated with 0.5 mg/mL liver microsomes from different species (human, dog, rat and mouse) with an NADPH regenerating system at 37° C. Samples were quenched at three time points (0, 30, 60 min) with organic solvent containing internal standards, and the supernatant was analyzed for parent loss via LC-MS/MS. Midazolam was used as the positive control to validate the incubation system.
where Cprotein is the microsomal protein concentration in the incubation system.
The value of CLint and T1/2 of Example F132b in WO2019210818 and representative compounds of the disclosure were determined, and the results are shown in Table 5.

[2] = target: recombinant human Bcl-2 D103Y protein (Homo sapiens (Human), UniProt P10415, D103Y); assay: Bcl-2-D103Y Biochemical Assay (TR-FRET); format: binding; conditions: for IC50: TR-FRET, FITC labeled Bak peptide; for Ratio of Bcl-2 D103Y/Bcl-2 WT: ratio of IC50; for ratio of Bcl-2 D103Y/Bcl-2 wt, compared with F91b in WO2019210828: comparison in words
Method in brief: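 Compounds titrated against the Bcl-2 D103Y–ligand interaction; inhibition derived from the TR-FRET emission ratio 490 nm/520 nm after 337 nm excitation. Four-parameter logistic fitting gave IC50.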

[3] = target: Recombinant human Bcl-2 protein (Homo sapiens (Human), UniProt P10415); assay: Bcl-2 TR-FRET Assay; format: binding
Method in brief: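 In pH 7.5 phosphate buffer containing NaCl, EDTA, Tween-20 and BSA, 0.05 nM Bcl-2 saw serially diluted compound for 0.5 h before 0.5 nM FITC-Bak peptide was added. Signal ratio at 520/490 nm after 1 h yielded IC50.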

[4] = Bcl-2 wild type, TR-FRET, read-out: Biochemical assay (IC50, nM) Bcl-2 WT
[5] = wild type Bcl-2, unit inferred, read-out: Bcl-2 WT

Sequence of Recombinant human Bcl-2 protein (P10415 whole entry): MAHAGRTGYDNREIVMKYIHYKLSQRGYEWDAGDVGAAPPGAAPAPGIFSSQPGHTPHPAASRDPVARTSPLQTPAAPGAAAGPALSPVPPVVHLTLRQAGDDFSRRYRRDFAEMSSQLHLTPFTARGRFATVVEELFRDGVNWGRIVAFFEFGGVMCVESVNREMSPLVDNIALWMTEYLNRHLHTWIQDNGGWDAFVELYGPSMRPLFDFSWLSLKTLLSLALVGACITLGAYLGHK
Sequence of recombinant human Bcl-2 D103Y protein (P10415 whole entry D103Y): as the sequence (P10415 whole entry) above, with D103Y counted along it

| Structure (SMILES) | half-life at 1 μM [1] [min] | microsomal CLint at 1 μM [1] [µL/min/mg] | IC50 [2] [nM] | Ratio of Bcl-2 D103Y/Bcl-2 WT [2] | IC50 [3, 4] [nM] | IC50 [3, 5] [nM] | ratio of Bcl-2 D103Y/Bcl-2 wt, compared with F91b in WO2019210828 [2] |
| --- | --- | --- | --- | --- | --- | --- | --- |
| [2H]C([2H])([2H])Oc1ccc(CN2CCN(C3CC4(CCN(c5ccc(C(=O)NS(=O)(=O)c6ccc(NC[C@H]7CC[C@](C)(O)CC7)c([N+](=O)[O-])c6)c(Oc6cnc7[nH]cc(F)c7c6)c5)CC4)C3)[C@H](c3ccccc3C(C)C)C2)cc1OC([2H])([2H])[2H] [Example 198, 4-(2-((R)-4-(3,4-bis(methoxy-d3)benzyl)-2-(2-isopropylphenyl)piperazin-1-yl)-7-azaspiro[3.5]nonan-7-yl)-2-((3-fluoro-1H-pyrrolo[2,3-b]pyridin-5-yl)oxy)-N-((4-((((1r,4r)-4-hydroxy-4-methylcyclohexyl)methyl)amino)-3-nitrophenyl)sulfonyl)benzamide] | 247 | 5.6 | 0.08 | 1.1 | 0.072 | 0.072 |  |
| COc1ccc(CN2CCN(C3CC4(CCN(c5ccc(C(=O)NS(=O)(=O)c6ccc(NC[C@H]7CC[C@](C)(O)CC7)c([N+](=O)[O-])c6)c(Oc6cnc7[nH]ccc7c6)c5)CC4)C3)C(c3ccccc3C(C)C)C2)c(OC)c1 (stereo partly shown) [Example 48] | 256 | 5.4 | 0.2 | 2.8 | 0.072 | 0.072 |  |
| CC(C)c1ccccc1C1CN(Cc2ccccc2F)CCN1C1CC2(CCN(c3ccc(C(=O)NS(=O)(=O)c4ccc(NC[C@H]5CC[C@](C)(O)CC5)c([N+](=O)[O-])c4)c(Oc4cnc5[nH]ccc5c4)c3)CC2)C1 (stereo partly shown) [Example 46, 2-((1H-pyrrolo[2,3-b]pyridin-5-yl)oxy)-4-(2-(4-(2-fluorobenzyl)-2-(2-isopropylphenyl)piperazin-1-yl)-7-azaspiro[3.5]nonan-7-yl)-N-((4-((((1r,4r)-4-hydroxy-4-methylcyclohexyl)methyl)amino)-3-nitrophenyl)sulfonyl)benzamide] | 153 | 9.1 | 1.8 | 5.1 | 0.34 | 0.34 |  |
| COc1cc(CN2CCN(C3CC4(CCN(c5ccc(C(=O)NS(=O)(=O)c6ccc(NC[C@H]7CC[C@](C)(O)CC7)c([N+](=O)[O-])c6)c(Oc6cnc7[nH]cc(F)c7c6)c5)CC4)C3)[C@H](c3ccccc3C(C)C)C2)cc2ccoc12 [Example 281, 2-((3-fluoro-1H-pyrrolo[2,3-b]pyridin-5-yl)oxy)-N-((4-((((1r,4r)-4-hydroxy-4-methylcyclohexyl)methyl)amino)-3-nitrophenyl)sulfonyl)-4-(2-((R)-2-(2-isopropylphenyl)-4-((7-methoxybenzofuran-5-yl)methyl)piperazin-1-yl)-7-azaspiro[3.5]nonan-7-yl)benzamide] | 870 | 1.6 | 0.51 | 1.2 | 0.43 | 0.43 |  |
| COc1cc(CN2CCN(C3CC4(CCN(c5ccc(C(=O)NS(=O)(=O)c6ccc(NC[C@H]7CC[C@](C)(O)CC7)c([N+](=O)[O-])c6)c(Oc6cnc7[nH]ccc7c6)c5)CC4)C3)[C@H](c3ccccc3C(C)C)C2)ccc1C1CC1 [Example 257] | 372 | 3.7 |  |  | 0.4 |  |  |
| CC(C)c1ccccc1C1CN(Cc2ccc(F)c(F)c2)CCN1C1CC2(CCN(c3ccc(C(=O)NS(=O)(=O)c4ccc(NC[C@H]5CC[C@](C)(O)CC5)c([N+](=O)[O-])c4)c(Oc4cnc5[nH]ccc5c4)c3)CC2)C1 (stereo partly shown) [Example 52, 2-((1H-pyrrolo[2,3-b]pyridin-5-yl)oxy)-4-(2-(4-(3,4-difluorobenzyl)-2-(2-isopropylphenyl)piperazin-1-yl)-7-azaspiro[3.5]nonan-7-yl)-N-((4-((((1r,4r)-4-hydroxy-4-methylcyclohexyl)methyl)amino)-3-nitrophenyl)sulfonyl)benzamide] | 145 | 9.5 | 0.61 | 2.5 | 0.24 | 0.24 |  |
| COc1ccc(CN2CCN(C3CC4(CCN(c5ccc(C(=O)NS(=O)(=O)c6ccc(NC[C@H]7CC[C@](C)(O)CC7)c([N+](=O)[O-])c6)c(Oc6cnc7[nH]ccc7c6)c5)CC4)C3)C(c3ccccc3C(C)C)C2)cn1 (stereo partly shown) [Example 72, 2-((1H-pyrrolo[2,3-b]pyridin-5-yl)oxy)-N-((4-((((1r,4r)-4-hydroxy-4-methylcyclohexyl)methyl)amino)-3-nitrophenyl)sulfonyl)-4-(2-(2-(2-isopropylphenyl)-4-((6-methoxypyridin-3-yl)methyl)piperazin-1-yl)-7-azaspiro[3.5]nonan-7-yl)benzamide] | 491 | 2.8 | 0.08 | 1.6 | 0.05 | 0.05 | significantly lower |
| COc1ccc(CN2CCN(C3CC4(C3)CN(c3ccc(C(=O)NS(=O)(=O)c5ccc(NC[C@H]6CC[C@](C)(O)CC6)c([N+](=O)[O-])c5)c(Oc5cnc6[nH]ccc6c5)c3)C4)[C@H](c3ccccc3C(C)C)C2)cc1OC [Example 145, 2-((1H-pyrrolo[2,3-b]pyridin-5-yl)oxy)-4-(6-((R)-4-(3,4-dimethoxybenzyl)-2-(2-isopropylphenyl)piperazin-1-yl)-2-azaspiro[3.3]heptan-2-yl)-N-((4-((((1r,4r)-4-hydroxy-4-methylcyclohexyl)methyl)amino)-3-nitrophenyl)sulfonyl)benzamide] | 970 | 1.4 | 0.045 | 1.6 | 0.028 | 0.028 | significantly lower |
| CC(C)c1ccccc1C1CN(Cc2cc(F)cc(F)c2)CCN1C1CC2(CCN(c3ccc(C(=O)NS(=O)(=O)c4ccc(NC[C@H]5CC[C@](C)(O)CC5)c([N+](=O)[O-])c4)c(Oc4cnc5[nH]ccc5c4)c3)CC2)C1 (stereo partly shown) [Example 51, 2-((1H-pyrrolo[2,3-b]pyridin-5-yl)oxy)-4-(2-(4-(3,5-difluorobenzyl)-2-(2-isopropylphenyl)piperazin-1-yl)-7-azaspiro[3.5]nonan-7-yl)-N-((4-((((1r,4r)-4-hydroxy-4-methylcyclohexyl)methyl)amino)-3-nitrophenyl)sulfonyl)benzamide] | 234 | 5.9 | 1.5 | 3.5 | 0.42 | 0.42 |  |
| COc1ccc(CN2CCN(C3CC4(CCN(c5ccc(C(=O)NS(=O)(=O)c6ccc(NC[C@H]7CC[C@](C)(O)CC7)c([N+](=O)[O-])c6)c(Oc6cnc7[nH]cc(F)c7c6)c5)CC4)C3)[C@H](c3ccccc3C(C)C)C2)cc1OC [Example 127, 4-(2-((R)-4-(3,4-dimethoxybenzyl)-2-(2-isopropylphenyl)piperazin-1-yl)-7-azaspiro[3.5]nonan-7-yl)-2-((3-fluoro-1H-pyrrolo[2,3-b]pyridin-5-yl)oxy)-N-((4-((((1r,4r)-4-hydroxy-4-methylcyclohexyl)methyl)amino)-3-nitrophenyl)sulfonyl)benzamide] |  | < 1 | 0.11 | 1 | 0.071 | 0.1 | significantly lower |
| COc1ccc(CN2CCN(C3CC4(CCN(c5ccc(C(=O)NS(=O)(=O)c6ccc(NC[C@H]7CC[C@](C)(O)CC7)c([N+](=O)[O-])c6)c(Oc6cnc7[nH]ccc7c6)c5)CC4)C3)[C@H](c3ccccc3C(C)C)C2)cc1OC [Example 81a, 2-((1H-pyrrolo[2,3-b]pyridin-5-yl)oxy)-4-(2-((R)-4-(3,4-dimethoxybenzyl)-2-(2-isopropylphenyl)piperazin-1-yl)-7-azaspiro[3.5]nonan-7-yl)-N-((4-((((1r,4r)-4-hydroxy-4-methylcyclohexyl)methyl)amino)-3-nitrophenyl)sulfonyl)benzamide] |  | < 1 |  |  | 0.038 |  |  |
| COc1cc(CN2CCN(C3CC4(C3)CN(c3ccc(C(=O)NS(=O)(=O)c5ccc(NC[C@H]6CC[C@](C)(O)CC6)c([N+](=O)[O-])c5)c(Oc5cnc6[nH]cc(F)c6c5)c3)C4)[C@H](c3ccccc3C(C)C)C2)cc(F)c1OC [Example 230, 2-((3-fluoro-1H-pyrrolo[2,3-b]pyridin-5-yl)oxy)-4-(6-((R)-4-(3-fluoro-4,5-dimethoxybenzyl)-2-(2-isopropylphenyl)piperazin-1-yl)-2-azaspiro[3.3]heptan-2-yl)-N-((4-((((1r,4r)-4-hydroxy-4-methylcyclohexyl)methyl)amino)-3-nitrophenyl)sulfonyl)benzamide] | 373 | 3.7 |  |  | 0.19 |  |  |
